In patent US20100273814A1, “((PHENYL)IMIDAZOLYL)METHYLHETEROARYL COMPOUNDS” (priority 2007, published 2010):

Columns and labels:
Assay type in all cases: cell-based
alpha2A receptor = target: T1, alpha2A receptor (Homo sapiens, UniProt P08913); assay: Receptor Selection and Amplification Technology (RSAT) assay, alpha2A; details: RSAT; for EC50: transfected NIH-3T3 cells, value outside brackets, read-out: Alpha 2A EC50 (potency); for Alpha 2A intrinsic activity (efficacy): ratio of maximal effect to that of standard full agonist brimonidine (UK14304), value in brackets
T1 construct: expressed in transfected cells; host or cells: NIH-3T3 cells
T1 sequence (P08913 1-465): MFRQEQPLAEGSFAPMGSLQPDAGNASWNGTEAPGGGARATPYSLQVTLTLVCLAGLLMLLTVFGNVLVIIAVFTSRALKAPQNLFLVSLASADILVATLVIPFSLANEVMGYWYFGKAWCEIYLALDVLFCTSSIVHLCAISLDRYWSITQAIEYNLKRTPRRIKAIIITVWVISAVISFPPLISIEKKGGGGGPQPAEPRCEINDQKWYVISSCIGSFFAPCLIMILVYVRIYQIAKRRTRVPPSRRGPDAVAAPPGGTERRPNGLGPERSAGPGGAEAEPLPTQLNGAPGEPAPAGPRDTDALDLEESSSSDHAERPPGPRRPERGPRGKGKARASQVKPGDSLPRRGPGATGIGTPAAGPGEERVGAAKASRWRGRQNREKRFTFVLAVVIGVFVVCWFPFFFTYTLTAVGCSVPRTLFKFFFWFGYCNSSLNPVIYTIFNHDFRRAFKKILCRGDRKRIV
Procedure: (§1) Receptor Selection and Amplification Technology (RSAT) Assay
(§2) The RSAT assay measures a receptor-mediated loss of contact inhibition that results in selective proliferation of receptor-containing cells in a mixed population of confluent cells. The increase in cell number is assessed with an appropriate transfected marker gene such as β-galactosidase, the activity of which can be easily measured in a 96-well format. Receptors that activate the G protein, Gq, elicit this response. Alpha2 receptors, which normally couple to Gi, activate the RSAT response when coexpressed with a hybrid Gq protein that has a Gi receptor recognition domain, called Gq/i5.
(§3) NIH-3T3 cells are plated at a density of 2×10^6 cells in 15 cm dishes and maintained in Dulbecco's modified Eagle's medium supplemented with 10% calf serum. One day later, cells are cotransfected by calcium phosphate precipitation with mammalian expression plasmids encoding p-SV-β-galactosidase (5-10 μg), receptor (1-2 μg) and G protein (1-2 μg). 40 μg salmon sperm DNA may also be included in the transfection mixture. Fresh media is added on the following day and 1-2 days later, cells are harvested and frozen in 50 assay aliquots. Cells are thawed and […] added to 100 aliquots of various concentrations of drugs in triplicate in 96-well dishes. Incubations continue 72-96 hr at 37° C. After washing with phosphate-buffered saline, β-galactosidase enzyme activity is determined by adding 200 μl of the chromogenic substrate (consisting of 3.5 mM o-nitrophenyl-β-D-galactopyranoside and 0.5% nonidet P-40 in phosphate buffered saline), incubating overnight at 30° C. and measuring optical density at 420 nm. The absorbance is a measure of enzyme activity, which depends on cell number and reflects a receptor-mediated cell proliferation. The efficacy or intrinsic activity is calculated as a ratio of the maximal effect of the drug to the maximal effect of a standard full agonist for each receptor subtype. Brimonidine, also called UK14304, the chemical structure of which is shown below, is used as the standard agonist for the alpha2A, alpha2B and alpha2C receptors. The EC50 is the concentration at which the drug effect is half of its maximal effect.
(§4) EC50 values are nanomolar. ND stands for “not determinable” at concentrations less than 10 micromolar. IA stands for “intrinsic activity.”

alpha2B receptor = target: T2, alpha2B receptor (Homo sapiens, UniProt P18089); assay: Receptor Selection and Amplification Technology (RSAT) assay, alpha2B; details: RSAT; for EC50: transfected NIH-3T3 cells, value outside brackets, read-out: Alpha 2B EC50 (potency); for Alpha 2B intrinsic activity (efficacy): ratio of maximal effect to that of standard full agonist brimonidine (UK14304), value in brackets
T2 construct: expressed in transfected cells; host or cells: NIH-3T3 cells
T2 sequence (P18089 1-450): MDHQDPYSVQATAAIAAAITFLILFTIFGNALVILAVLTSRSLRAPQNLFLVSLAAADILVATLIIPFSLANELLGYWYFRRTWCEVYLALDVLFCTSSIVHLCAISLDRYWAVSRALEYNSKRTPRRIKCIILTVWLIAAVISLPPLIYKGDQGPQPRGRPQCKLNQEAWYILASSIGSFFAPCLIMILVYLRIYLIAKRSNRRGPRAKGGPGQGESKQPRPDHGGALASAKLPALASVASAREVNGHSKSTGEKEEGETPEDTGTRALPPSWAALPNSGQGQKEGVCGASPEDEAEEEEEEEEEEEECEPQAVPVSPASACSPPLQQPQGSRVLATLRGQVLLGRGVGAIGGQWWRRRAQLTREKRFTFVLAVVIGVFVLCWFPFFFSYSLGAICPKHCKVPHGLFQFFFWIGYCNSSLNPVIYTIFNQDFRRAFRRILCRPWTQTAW
Procedure: as §1, §2, §3, §4

alpha2C receptor = target: T3, alpha2C receptor (Homo sapiens, UniProt P18825); assay: Receptor Selection and Amplification Technology (RSAT) assay, alpha2C; details: RSAT; for EC50: transfected NIH-3T3 cells, value outside brackets, read-out: Alpha 2C EC50 (potency); for Alpha 2C intrinsic activity (efficacy): ratio of maximal effect to that of standard full agonist brimonidine (UK14304), value in brackets
T3 construct: expressed in transfected cells; host or cells: NIH-3T3 cells
T3 sequence (P18825 1-462): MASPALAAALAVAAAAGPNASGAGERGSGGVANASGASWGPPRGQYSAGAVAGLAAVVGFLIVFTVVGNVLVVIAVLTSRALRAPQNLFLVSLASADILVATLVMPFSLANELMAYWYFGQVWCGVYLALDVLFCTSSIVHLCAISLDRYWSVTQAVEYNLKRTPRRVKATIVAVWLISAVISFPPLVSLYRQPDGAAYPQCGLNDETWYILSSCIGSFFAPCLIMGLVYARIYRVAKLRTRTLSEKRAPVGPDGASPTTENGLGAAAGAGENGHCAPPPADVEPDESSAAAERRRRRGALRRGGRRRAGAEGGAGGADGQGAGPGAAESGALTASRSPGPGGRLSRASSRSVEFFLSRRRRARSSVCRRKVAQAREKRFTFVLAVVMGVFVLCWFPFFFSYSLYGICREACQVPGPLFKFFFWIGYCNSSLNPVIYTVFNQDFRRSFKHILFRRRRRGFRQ
Procedure: as §1, §2, §3, §4

Structure (SMILES) | EC50 (alpha2A receptor) [µM] | Alpha 2A intrinsic activity (efficacy) (alpha2A receptor) | EC50 (alpha2B receptor) [nM] | Alpha 2B intrinsic activity (efficacy) (alpha2B receptor) | EC50 (alpha2C receptor) [nM] | Alpha 2C intrinsic activity (efficacy) (alpha2C receptor)
Fc1cccc(C(c2cccnc2)c2c[nH]cn2)c1Cl (stereo not drawn) | 3.37 | 0.32 | 4.8 | 0.98 | 88 | 0.87
Fc1c(Cl)cccc1C(c1ccccn1)c1cnc[nH]1 (stereo not drawn) [2-((3-chloro-2-fluorophenyl)(1H-imidazol-5-yl)methyl)pyridine] | > 10 | 0.07 | 32 | 1.21 | 177 | 0.49
Fc1ccccc1C(c1ccncc1)c1c[nH]cn1 (stereo not drawn) [4-((2-fluorophenyl)(1H-imidazol-5-yl)methyl)pyridine] | > 10 | 0.04 | 350 | 0.78 | 365 | 0.48
